In ChEMBL document CHEMBL1157687, “Inhibitory activity of Brazilian green propolis components and their derivatives on the release of cys-leukotrienes” (Bioorg Med Chem, 2010):
≈ marks a conversion by molar mass, not a printed value.

system: HL-60 (Homo sapiens); assay: Antiallergic activity in Ca(2+)-stimulated differentiated human HL-60 cells assessed as inhibition of cys-leukotriene release after 6 days by ELISA; details: HL-60, 144 h

| SMILES | IC50 [µg/mL] |
| --- | --- |
| CC(C)=CCc1cc(/C=C/C(=O)O)cc(CC=C(C)C)c1O [ARTEPILLIN] | 7 (≈ 23.3 µM) |
| CC(C)=CCc1cc(/C=C/C(=O)OCCc2ccccc2)cc(CC=C(C)C)c1O [ARTEPILLIN C PHENETHYL ESTER] | 0.094 (≈ 0.232 µM) |
| O=C1C[C@@H](c2ccccc2)Oc2cc(O)cc(O)c21 [PINOCEMBRIN] | 6.1 (≈ 23.8 µM) |
| CC(Cc1ccc(O)c(O)c1)C(C)Cc1ccc(O)c(O)c1 (centres undefined) [NORDIHYDROGUAIARETIC ACID] | 0.08 (≈ 0.265 µM) |
| O=c1c(O)c(-c2ccc(O)cc2)oc2cc(O)cc(O)c12 [KAEMPFEROL] | 2.4 (≈ 8.38 µM) |
| O=C(O)/C=C/c1ccc(O)c(O)c1 [CAFFEIC ACID] | 44 (≈ 244 µM) |

More lines, now with the values ahead:

| IC50 [µg/mL] | SMILES |
| --- | --- |
| > 10 | CC(C)=CCc1cc(/C=C/C(=O)OCCc2ccccc2)ccc1OC(=O)CCc1ccccc1 [BACCHARIN PHENETHYL ESTER] |
| 0.2 (≈ 0.594 µM) | CC(C)=CCc1cc(/C=C/C(=O)OCCc2ccccc2)ccc1O [DRUPANIN PHENETHYL ESTER] |
| 2 (≈ 6.66 µM) | COc1ccc(-c2oc3cc(O)cc(O)c3c(=O)c2O)cc1 [KAEMPFERIDE] |
| 0.04 (≈ 0.169 µM) | CC(c1cc2ccccc2s1)N(O)C(N)=O (centres undefined) [ZILEUTON] |
| > 10 | CC(C)=CCc1cc(/C=C/C(=O)OCCc2ccccc2)cc2c1OC(C)(C)C=C2 [CULIFOLIN PHENETHYL ESTER] |
| 1.6 (≈ 5.36 µM) | CC(C)=CCc1cc(/C=C/C(=O)O)cc2c1OC(C)(C)C=C2 [CULIFOLIN] |
| 10.3 (≈ 44.3 µM) | CC(C)=CCc1cc(/C=C/C(=O)O)ccc1O [DRUPANIN] |
| 0.068 (≈ 0.239 µM) | O=C(/C=C/c1ccc(O)c(O)c1)OCCc1ccccc1 [CAFFEIC ACID PHENETHYL ESTER] |
